In US20240082268A1, “METHODS AND COMPOSITIONS FOR CONTROLLING NEUROINFLAMMATION” (Invenux, LLC, priority 2021, published 2024):

Experiments:
[1] = in vivo; cited from earlier work
[2] = test system: CD68 (microglia activation); assay: CD68 immunoreactivity in brain slices, mouse model of MPS IIIB; assay type: in vivo
Procedure: (§1) Brain slices were taken along the rostro caudal axis in a serial section. Quantification using the brain slices was performed using Image Pro Premiere software.
(§2) The breeding pairs of MPS IIIB mice were obtained from Jackson Laboratory (JAX stock #003827) and a MPS IIIB mouse colony was established. In MPS IIIB or Sanfillipo syndrome mice, both alleles of alpha-N-acetylglucosaminidase (NAGLU) are disrupted, knocked out (KO), by insertion of a neomycin resistance gene via homologous recombination. Gografe S I; Garbuzova-Davis S; Willing A E; Haas K; Chamizo W; Sanberg P R. Mouse model of Sanfilippo syndrome type B: relation of phenotypic features to background strain Comp Med 53(6):622-32. […] The heterozygous (Het) mice have only one allele of the NAGLU gene disrupted and can fully metabolize HS.
(§3) FIG. 1A and FIG. 1B show bar graphs of the percentage staining of Cluster of Differentiation 68 (CD68) and glial fibrillary acidic protein (GFAP), respectively, in serial section (one every twelve sections of 40 um thick) along the rostrocaudal axis of the brain after 30 days. […]
(§4) Quantification of brain slices was performed using Image Pro Premiere software.
(§5) After 30 days, animals were sacrificed and brain slices were taken along the rostro caudal axis in a serial section. Quantification was performed using Image Pro Premiere software.

[3] = test system: GFAP (astrocyte activation); assay: GFAP immunoreactivity in brain slices, mouse model of MPS IIIB; assay type: in vivo
Procedure: as §1, §2, §3, §4, §5

MPS IIIB KO mice = assay: Behavioral and cognitive tests in mouse model of MPS IIIB; assay type: in vivo; conditions: MPS IIIB KO mice, 100, 33 or 10 mg/kg/day oral, after 6 months, vs vehicle control
Procedure: CBD or vehicle is administered daily by oral gavage. […] At baseline, and after 3, 6, and 9 months, the mice are given behavioral tests to measure hyperactive and social interaction, and cognitive tests to measure spatial memory and learning deficits.

[4] = test system: inflammatory signaling molecules; assay: Inflammatory signaling molecules in plasma and CSF, mouse model of MPS IIIB; assay type: in vivo; conditions: MPS IIIB KO mice, 100, 33 or 10 mg/kg/day oral, after 6 months, vs vehicle control
Text: In particular, less of one or more of IL-1alpha, IL1beta, IL-2, IL-4, IL-6, IL-8, 11-10, IL-17A, IL-23, INF-gamma, MCP-1, caspase-1, caspase-3, TNF-alpha, and TGF-beta-alpha is expected.

[5] = molecular target: voltage-gated sodium channel Nav 1.6 receptor (Homo sapiens, UniProt Q9UQD0); conditions: cited from earlier work
Chain of voltage-gated sodium channel Nav 1.6 receptor (Q9UQD0 whole entry): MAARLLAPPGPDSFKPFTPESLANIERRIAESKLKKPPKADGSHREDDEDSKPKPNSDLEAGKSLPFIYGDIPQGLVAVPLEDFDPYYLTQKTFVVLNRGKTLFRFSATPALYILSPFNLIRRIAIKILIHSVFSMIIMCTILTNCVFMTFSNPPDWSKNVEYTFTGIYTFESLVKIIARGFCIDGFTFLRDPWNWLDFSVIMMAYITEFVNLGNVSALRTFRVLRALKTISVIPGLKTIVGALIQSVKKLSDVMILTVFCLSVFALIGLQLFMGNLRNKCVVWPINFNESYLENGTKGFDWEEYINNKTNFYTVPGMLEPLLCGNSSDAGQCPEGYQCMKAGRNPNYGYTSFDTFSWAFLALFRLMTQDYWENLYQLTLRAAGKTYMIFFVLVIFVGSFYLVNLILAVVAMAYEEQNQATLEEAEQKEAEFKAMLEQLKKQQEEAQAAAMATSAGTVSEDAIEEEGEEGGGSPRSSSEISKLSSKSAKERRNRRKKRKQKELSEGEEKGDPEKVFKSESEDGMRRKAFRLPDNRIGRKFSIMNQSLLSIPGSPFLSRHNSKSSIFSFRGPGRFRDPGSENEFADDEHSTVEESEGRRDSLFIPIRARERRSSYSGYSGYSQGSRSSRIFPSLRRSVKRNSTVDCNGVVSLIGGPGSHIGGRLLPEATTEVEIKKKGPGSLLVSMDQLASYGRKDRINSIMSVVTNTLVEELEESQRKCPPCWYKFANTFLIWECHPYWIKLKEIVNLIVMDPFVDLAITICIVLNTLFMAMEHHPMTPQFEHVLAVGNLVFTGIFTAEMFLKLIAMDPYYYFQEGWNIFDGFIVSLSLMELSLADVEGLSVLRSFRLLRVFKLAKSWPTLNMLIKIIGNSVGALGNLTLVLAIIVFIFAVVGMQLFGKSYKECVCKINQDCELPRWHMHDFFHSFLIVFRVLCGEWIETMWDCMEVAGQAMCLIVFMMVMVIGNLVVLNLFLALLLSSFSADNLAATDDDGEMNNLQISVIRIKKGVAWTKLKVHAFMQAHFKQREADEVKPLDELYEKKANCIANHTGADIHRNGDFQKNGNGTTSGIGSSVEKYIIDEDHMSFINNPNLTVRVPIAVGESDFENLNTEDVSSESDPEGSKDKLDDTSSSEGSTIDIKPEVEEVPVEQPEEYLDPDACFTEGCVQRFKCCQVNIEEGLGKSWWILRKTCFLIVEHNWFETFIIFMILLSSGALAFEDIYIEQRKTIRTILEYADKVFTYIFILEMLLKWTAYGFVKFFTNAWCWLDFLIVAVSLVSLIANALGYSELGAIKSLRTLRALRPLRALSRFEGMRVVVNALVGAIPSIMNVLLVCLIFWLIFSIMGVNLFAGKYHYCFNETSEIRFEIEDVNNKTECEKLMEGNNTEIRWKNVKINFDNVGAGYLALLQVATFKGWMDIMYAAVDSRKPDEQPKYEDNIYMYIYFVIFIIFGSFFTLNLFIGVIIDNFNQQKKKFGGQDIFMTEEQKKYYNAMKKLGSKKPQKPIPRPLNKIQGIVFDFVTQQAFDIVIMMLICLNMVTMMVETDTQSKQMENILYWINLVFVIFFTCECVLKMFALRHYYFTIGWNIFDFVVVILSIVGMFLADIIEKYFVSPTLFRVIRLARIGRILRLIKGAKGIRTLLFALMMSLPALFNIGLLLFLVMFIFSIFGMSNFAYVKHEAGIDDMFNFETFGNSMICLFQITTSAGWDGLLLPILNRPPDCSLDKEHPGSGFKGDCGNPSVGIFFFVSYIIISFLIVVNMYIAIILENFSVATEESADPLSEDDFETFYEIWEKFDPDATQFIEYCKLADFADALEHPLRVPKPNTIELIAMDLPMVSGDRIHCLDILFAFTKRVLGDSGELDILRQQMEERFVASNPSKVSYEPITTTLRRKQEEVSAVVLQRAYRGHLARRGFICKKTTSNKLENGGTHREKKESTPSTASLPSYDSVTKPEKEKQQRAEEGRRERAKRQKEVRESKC

[6] = molecular target: CB2 endocannabinoid receptor (Homo sapiens, UniProt P34972); conditions: cited from earlier work
Chain of CB2 endocannabinoid receptor (P34972 whole entry): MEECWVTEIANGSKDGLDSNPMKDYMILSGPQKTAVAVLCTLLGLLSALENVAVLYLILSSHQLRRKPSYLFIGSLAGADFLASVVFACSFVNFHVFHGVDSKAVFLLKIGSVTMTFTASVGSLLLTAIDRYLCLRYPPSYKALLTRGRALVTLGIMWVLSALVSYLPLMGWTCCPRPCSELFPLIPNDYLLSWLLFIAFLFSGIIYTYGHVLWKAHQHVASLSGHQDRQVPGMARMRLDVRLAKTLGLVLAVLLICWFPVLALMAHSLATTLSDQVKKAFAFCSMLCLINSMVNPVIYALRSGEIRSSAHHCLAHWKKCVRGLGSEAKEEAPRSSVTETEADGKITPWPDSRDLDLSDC

[7] = 9-month old MPS IIIB KO mice, 100 mg/kg CBD in sesame oil, oral gavage once daily for 30 days, vs KO mice given vehicle
[8] = MPS IIIB KO mice, 100 mg/kg oral, 30 days, representative brain slices

| Compound | crossing of the BBB [1] | decrease in the immunoreactivity of CD68 (% area) in brain [2, 7] | microglia cell neuroinflammation and activation (CD68) [2, 8] | decrease in the immunoreactivity of GFAP (% area) in brain [3, 7] | astrocyte cell neuroinflammation and activation (GFAP) [3, 8] | hyperactivity (MPS IIIB KO mice) | learning deficit (MPS IIIB KO mice) | social interaction (MPS IIIB KO mice) | spatial memory (MPS IIIB KO mice) | inflammatory signaling molecules in plasma and CSF [4] | IC50 [5] | affinity to Nav 1.6 receptor [5] | affinity to CB2 receptor [6] |
| --- | --- | --- | --- | --- | --- | --- | --- | --- | --- | --- | --- | --- | --- |
| Adalimumab | does not cross the BBB |  |  |  |  |  |  |  |  |  |  |  |  |
| C=C(C)[C@@H]1CCC(C)=C[C@H]1c1c(O)cc(CCCCC)cc1O [CBD, Cannabidiol] |  | 30% | significantly decreases | 50% | significantly decreases | less hyperactivity | less learning deficit | more social interaction | less loss of spatial memory | less inflammatory signaling molecules | 1 to 6 µM | uM affinity | uM affinity |
